{"source": "paper PMC9915011", "about": "“Polymyxin B Conjugates with Bio-Inspired Synthetic Polymers of Different Nature” (International Journal of Molecular Sciences, 2023)", "key": {"[1]": {"test_system": "P. aeruginosa (ATCC 27853)", "assay": "MIC by microdilution in Müller–Hinton broth", "format": "cell-based, Pseudomonas aeruginosa", "settings": "18 h, OD 630 nm, n = 9", "description": "P. aeruginosa (ATCC 27853) from Museum of Microbiological Cultures of State Research Institute of Highly Pure Biopreparations FMBA (St. Petersburg, Russia) and Müller–Hinton Broth (HiMedia, Mumbai, India) were used to study the antibacterial effect of PMX B and its conjugates. HEK 293T cells were purchased from the cell culture collection of the Institute of Cytology of Russian Academy of Sciences (St. Petersburg, Russia).\nThe minimum inhibitory concentration (MIC) of polymyxin B in the conjugates was determined by the microdilution method in Müller–Hinton broth. Before the samples were tested against P. Aeruginosa, they were checked for microbiological purity to exclude possible contamination. In all cases, the absence of microbial growth on Luria–Bertani agar was detected. […] The plate was incubated for 18 h at 37 °C and then the optical density in the wells was measured at 630 nm using a microplate reader (ELx808™ Absorbance Microplate Reader, BioTek-Agilent, Santa Clara, CA, USA). Relative bacterial growth (%) was calculated from the data of OD measured for samples and control according to the equation: (2) Relative bactearial growth=OD630 sample at Cx−OD630 blank/OD630 positive control−OD630 blank×100% where Cx is a certain concentration of the sample. […]"}, "[2]": {"test_system": "S. aureus", "settings": "cited from earlier work", "description": "A series of conjugates of loracarbef (cephalosporins) and ciprofloxacin (fluroquinolones) with sideromycins (siderophores) was synthesized and tested against a panel of ESKAPEE bacteria (Enterococcus faecium, S. aureus, Klebsiella pneumoniae, A. baumannii, P. aeruginosa, Enterobacter aerogenes, E. coli)."}, "[3]": {"test_system": "Acinetobacter baumannii (Ab ATCC 19606)", "settings": "cited from earlier work"}, "[4]": {"test_system": "P. aeruginosa", "settings": "free colistin; cited from earlier work", "method": "According to the published works, many factors affect the MIC for conjugates linked with amide bonds. For example, Dubashynskaya et al. observed the dependence of MIC on the degree of substitution (DS). In particular, when the DS was 8%, the MIC against P. aeruginosa for hyaluronan–colistin conjugates was 1 µg/mL, the same as for free colistin. At the same time, a decrease in DS to 5 and 3% was accompanied with the MIC increase to 4 and more than 8 µg/mL, respectively."}, "[5]": {"test_system": "HEK 293T cells", "assay": "MTT cytotoxicity in HEK 293T cells, 48 h", "format": "cell-based, human", "settings": "free polymers and free PMX B, tested 4 to 1000 µg/mL, mean ± SD, n = 4", "procedure": "The cell viability was determined after 48 h using the MTT assay (Figure 6).\nHEK 293T cells were cultivated in DMEM/F12 medium with 10% FCS, 2 mM glutamine, and 1% gentamicin (Sigma-Aldrich, Darmstadt, Germany). In 96-well plates, 3.5 × 10^3 cells in 100 µL were seeded per well and left for adhesion at 37 °C for 24 in a humidified 5% CO2 atmosphere. After that, the medium in the wells was replaced with 200 µL of solution containing the test samples at the specified concentrations (n = 4) and left for incubation under the same conditions for 48 h. Then, the medium was removed and 100 µL of MTT reagent solution (5 mg/mL stock solution) was added to each well. The plates were incubated in the CO2 incubator for 3 h at 37 °C. Finally, the solution in the well was replaced with 50 µL of DMSO to dissolve formazan crystals and the optical density in each well was measured at 570 nm using fluorescent plate reader (Fluoroscan Ascent, Thermo Fisher Scientific Inc., Waltham, MA, USA). The wavelength of 690 nm was used to measure the background absorbance. The data obtained were normalized as a percentage of the control. Free polymers and PMX B were tested at concentrations ranging from 4 to 1000 µg/mL."}}}
{"compound": "CC(=O)N(O)CCCCCNC(=O)CCC(=O)N(O)CCCCCNC(=O)CCC(=O)N(O)CCCCCN", "note": "[DFOA, deferoxamine]", "values": [{"measurement": "antimicrobial activity", "setting": "[1]; P. aeruginosa, concentration range of 0.25–64 μg/mL", "value": "neither polymers nor DFOA exhibited antimicrobial activity"}]}
{"compound": "N[C@@H](C(=O)N[C@@H]1C(=O)N2C(C(=O)O)=C(Cl)CC[C@H]12)c1ccccc1", "note": "[loracarbef]", "values": [{"measurement": "MIC", "setting": "[2]", "value": 1, "unit": "µM"}]}
{"compound": "colistin", "values": [{"measurement": "MIC", "setting": "[3]", "value": 1, "unit": "mg/L"}, {"measurement": "MIC", "setting": "[4]", "value": 1, "unit": "mg/L"}]}
{"compound": "polymyxin B [PMX B]", "values": [{"measurement": "IC50", "setting": "[5]", "value": "130 ± 14", "unit": "mg/L"}, {"measurement": "MIC", "setting": "[1]; P. aeruginosa ATCC 27853, microdilution, Müller–Hinton broth, 1 × 10^7 CFU/mL, 37 °C, MIC of polymyxin B in the conjugates", "value": 4, "unit": "mg/L"}]}
